# Laboratory results reported in US20120308554A1, “VEGF-D/VEGFR2/3-MEDIATED REGULATION OF DENDRITES” (UNIVERSITAT HEIDELBERG, priority 2011, published 2012).
# What was measured:
# hippocampal neurons = experiment: Morphometric analyses (total dendritic length, Sholl analysis, spine density) of cultured hippocampal neurons; format: cell-based, mice
# Procedure: Hippocampal neurons from newborn C57BL/6 mice were cultured as known in the art. Experiments were done after a culturing period of 10 to 14 days in vitro (DIV). DNA transfection was done on DIV8 using Lipofectamine 2000 (Invitrogen, San Diego, Calif.). For the studies on dendrite morphology, neurons were analyzed 4-5 days after transfection.
# (§1) For 3D Sholl Analysis, total dendritic length and spine morphology were calculated using Object-Image freeware software with a specific set of macros (written by Dr. E. Ruthazer, McGill University, Quebec). Briefly, a z-Stack acquisition was imported, calibrated in Object-Image and manually traced. Total dendritic length was then computed. For Sholl analysis, the shell interval was set at 5 μm. All analyses were performed blind. In all in vitro experiments, for each condition, a minimum of 12 neurons from three independent preparations was analyzed. For the Golgi staining quantifications of 20 neurons for each condition from 4 different injected animals per viral construct were traced and analyzed.
# Hippocampal neurons were fixed with 4% paraformaldehyde at room temperature for 20 min. For immunostaining, primary and secondary antibodies were applied in GDB buffer (30 mM phosphate buffer [pH7.4] containing 0.2% gelatin, 0.5% Triton X-100, and 0.9 M NaCl). For the morphometric analyses, fluorescence images were acquired using a confocal laser-scanning microscope TCS SP2 (Leica, Mannheim, Germany) equipped with an inverted fluorescence microscope DM IRE2 (Leica) and Leica confocal scan software. All images were obtained with sequential acquisition setting at a resolution of 1024×1024 pixels. Each image was a z series projection of images taken at 1 μm intervals.
# CA1 pyramidal neurons = experiment: Golgi staining-based morphometric analysis of CA1 neurons after stereotaxic rAAV delivery; format: in vivo, C57BL/6 mice; settings: CA1 basal dendrites, 2.5 weeks after viral gene delivery
# Procedure: rAAVs were delivered by stereotaxic injection into the right dorsal hippocampus of 2 months old male C57BL/6 mice. For the Golgi staining-based morphometric analysis, viral particles were unilaterally injected over a period of 20 min at the following coordinates relative to Bregma: anteroposterior, −2.1 mm; mediolateral, −1.4 mm; dorsoventral, −1.4 to −1.8 mm from the skull surface. For behavior experiments mice were injected bilaterally.
# as §1
# Golgi impregnation was performed using a Rapid Golgi Stain Kit (FD Neuro Technologies) according to the manufacturer's protocol. […]
substance,measurement,setting,value
"shVEGFD: shRNA targeting mouse VEGFD mRNA (GGGCTTCAGGAGCGAACAT; SEQ ID NO: 1), expressed from rAAV vector or plasmid with U6 promoter",total dendritic length and dendritic complexity (Sholl analysis),hippocampal neurons; neurons expressing the construct versus control constructs,less complex dendritic arbor and a reduction in total dendritic length
same,spine density (number of spines/20 μm),hippocampal neurons; transfected hippocampal neurons,6.52±0.51 spines/20 μm
same,total length of dendrites and their complexity in vivo,CA1 pyramidal neurons,reduced both the total length of dendrites and their complexity
